# Assay results published in EP1304333A2, “6,7-Oxygenated steroids and uses related thereto” (Inflazyme Pharmaceuticals, Ltd., priority 1996, dated 1998).
# Tests used:
# isolated trachea = assay: Allergen (OA)-induced contraction of isolated trachea from sensitized guinea pigs; parameters: species or system guinea pig; details: Study 3, 30 µM compound
# Description: The effects of a number of the compounds described herein on allergen-induced bronchoconstriction were evaluated for anti-asthma activity. The ability of a compound to inhibit allergen-induced decreases in lung function in sensitized guinea pigs in response to antigen-challenge is indicative of anti-asthma activity. In particular, the model system is useful in the evaluation of the potential effects of a compound in the treatment of the early asthmatic reaction (EAR) when severe bronchoconstriction occurs.
# Guinea pigs were exposed to a nebulized solution of 1% ovalbumin (OA) in saline for 15 min. […] Tracheal rings were prepared and bathed in Krebs-Henseleit solution at 37°C and aerated with 5% CO2 in O2. Tissues were suspended under a resting tension of 2 g and isometric contractions were measured using force-displacement transducers coupled to a polygraph. Tissues were incubated with each compound or 0.1% dimethylsulfoxide (as a control) for 20 min, after which increasing concentrations of OA (0.001 - 100 µg/ml) were added to the tissue. After the final concentration of OA was added and the response was recorded, the tissues were stimulated with 100 µM methacholine which caused maximum contraction of the trachea. The magnitude of the contraction induced by OA in the presence of each compound was expressed as a percentage of the maximum contraction obtained using methacholine (100 µM).
# [1] = tested on: Ascaris suum sensitized sheep; assay: Allergic sheep model of asthma (specific lung resistance, hyperresponsiveness to carbachol); type: in vivo; details: 400 µg/kg 30 min prior to and 4 hrs after challenge, inhalation; -0.5 hr
# Description: The model is conscious, where the animals are breathing spontaneously, allowing measurement of airways bronchoconstriction and acute airway hyperresponsiveness.
# Sheep which were naturally sensitized to Ascaris suum (30-40 Kg) were intubated with an endotracheal tube and a balloon catheter, positioned in the lower esophagus. Pleural pressure was estimated with the esophageal catheter, while later pressure was measured with a side-hole catheter advanced through and positioned distal to the tip of the endotracheal tube. Transpulmonary pressure differences between the trachea and pleural pressures were measured with a differential pressure transducer catheter system.
# The proximal end of the endotracheal tube was connected to a Fleisch pneumotachograph in order to measure flow changes. Pulmonary resistance (RL) was calculated from pressure measurements of transpulmonary pressure, respiratory volume (from digital integration of the flow signal) and flow by the mid-flow technique. SRL was calculated as RL·Vtg (Vtg=thoracic gas volume).
# Aerosols generated using a disposable nebulizer, were directed into a T-piece connected to a Harvard respirator and the tracheal tube in series. […]
# Specific lung resistance (SRL) was measured every 60 min for 8 hours after antigen challenge. Airways hyperresponsiveness to carbachol was measured 24 hours after the initial challenge.
# sensitized guinea pigs = assay: Allergen-induced changes in lung resistance and lung compliance in vivo; parameters: species or system guinea pig; details: 50 µg/kg inhalation
# Description: In addition, the effect of compounds of the invention on lung function in vivo was determined in sensitized animals as follows: • Female Cam Hartley guinea pigs (350-400 g) are sensitized to ovalbumin by exposure of the guinea pigs to a nebulized solution of 1% ovalbumin in saline for 15 minutes. After 10-12 days, the animals are found to be acutely sensitized to the allergen (ovalbumin). Animals are treated by oral gavage, under light halothane anesthesia, with 300 µl polyethyleneglycol-200 (PEG) or 5 mg/Kg of test compound in 300 µl of PEG. Animals are treated once daily for 4 days with the final dose administered 2 hours prior to allergen challenge. Alternatively, compounds were delivered by inhalation, using a Hudson nebulizer driven by 6psi oxygen, providing a single dose of 50 µg/Kg 20 min prior to challenge.
# An animal is anaesthetized using ketamine ([…]; i.p.) and xylazine (10 mg/Kg; i.p.) and 1% halothane during the surgical procedure. A tracheostomy is performed and a water-filled esophageal cannula is inserted prior to positioning the animal in a body plethysmograph. The tracheal cannula is attached to a fixed tracheal cannula in the plethysmograph. Cardiac function is monitored using electrocardiography. The animal is paralyzed using pancuronium bromide (0.8 mg/Kg; i.m.) and ventilated with 3 ml tidal breaths using a Harvard small animal ventilator, at a frequency of 60 breaths per minute. Pulmonary resistance and dynamic lung compliance data are obtained from volume, flow and transpulmonary pressure signals using multipoint analysis.
# Pulmonary function is continually monitored throughout the experiment and measurements of lung resistance and lung compliance are made at various time-points (e.g., 0, 1, 2, 3, 4, 5, 10, 20 and 30 min) following antigen challenge. Data is collected on a computer-linked physiological measurement system using DIREC Physiological recording software and analyzed using ANADAT software designed for lung mechanics measurements. This software was obtained from RHT-InfoDat Inc., Montreal, Quebec, Canada.
# Once baseline resistance and compliance measurements are obtained, the animal is challenged with 6 breaths of saline. After 10 minutes, during which time no alterations in lung function should occur, the animal is challenged with 6 breaths of 2 or 3% ovalbumin in saline (as the antigen stimulus). Saline and antigen are delivered in each breath using a Hudson nebulizer.
# [2] = tested on: sensitized Brown Norway rats; assay: Allergen-induced lung inflammation (inflammatory cells in lung lavage fluid); type: in vivo, rat; details: 5 mg/kg/day for 4 days, p.o.; OA challenge; lavage 48 hours after challenge
# Source text: The ability of a compound to inhibit the allergen-induced accumulation of inflammatory cells such as eosinophils and neutrophils in the lavage fluid obtained from sensitized animals is indicative of anti-asthma activity. In particular, the model system is useful in the evaluation of the effects of compounds in the treatment of the late-phase response of asthma, when lung inflammation and the second phase of bronchoconstriction is apparent.
# Male Brown Norway rats (200-250 g) are sensitized to ovalbumin by an intraperitoneal injection of 1 mg ovalbumin and 100 mg aluminum hydroxide in 1 ml of sterile saline. After 21 days the animals are found to be sensitized to ovalbumin. Animals are treated with drug or vehicle (0.3 ml PEG-200) once daily for 4 days by oral gavage. The animals are challenged by exposure, for a period of 60 minutes, to nebulized solution of 0.5% ovalbumin in saline generated using a Devillbis nebulizer. The final dose of drug is given 24 hours after challenge. Forty eight hours after challenge the animals are euthanized by an overdose of halothane and the lungs are lavaged with 7 x 2 mLs of sterile saline (room temperature). The recovered lavage fluid is placed on ice and centrifuged at 1200 rpm to separate the cells from the supernatant. The cells are exposed briefly to Tris/ammonium chloride, pH 7.3 to remove any red cells, and washed in phosphate buffered saline. Cytospins of each cell sample are prepared and stained for the presence of cells containing peroxidase and for the determination of the numbers of eosinophils and neutrophils. The numbers of inflammatory cells are expressed as a percentage of the total number of cells recovered in the lavage fluid.
substance,measurement,setting,value
"3α,6α,7β-trihydroxy-17(20)-pregnene [Compound 330]",percentage contraction compared to 100µM methacholine (100%),isolated trachea; 0.001 µg/ml OA,0%
same,percentage contraction compared to 100µM methacholine (100%),isolated trachea; 0.01 µg/ml OA,1.90%
same,percentage contraction compared to 100µM methacholine (100%),isolated trachea; 0.1 µg/ml OA,9.00%
same,percentage contraction compared to 100µM methacholine (100%),isolated trachea; 1 µg/ml OA,17.5%
same,percentage contraction compared to 100µM methacholine (100%),isolated trachea; 10 µg/ml OA,26.0%
same,percentage contraction compared to 100µM methacholine (100%),isolated trachea; 100 µg/ml OA,30.0%
same,Specific Lung Resistance (% Baseline),[1],0±4 % Baseline
same,Lung Compliance,sensitized guinea pigs; 1 min after challenge,0.349±0.059 ml/cm H2O
same,Lung Resistance,sensitized guinea pigs; 1 min after challenge,0.382±0.033 cm H2O/ml/sec
same,Lung Compliance,sensitized guinea pigs; 2 min after challenge,0.213±0.046 ml/cm H2O
same,Lung Resistance,sensitized guinea pigs; 2 min after challenge,0.420±0.044 cm H2O/ml/sec
same,Lung Compliance,sensitized guinea pigs; 3 min after challenge,0.176±0.045 ml/cm H2O
same,Lung Resistance,sensitized guinea pigs; 3 min after challenge,0.420±0.051 cm H2O/ml/sec
same,Lung Compliance,sensitized guinea pigs; 4 min after challenge,0.145±0.046 ml/cm H2O
same,Lung Resistance,sensitized guinea pigs; 4 min after challenge,0.455±0.047 cm H2O/ml/sec
same,Lung Compliance,sensitized guinea pigs; 5 min after challenge,0.146±0.031 ml/cm H2O
same,Lung Resistance,sensitized guinea pigs; 5 min after challenge,0.446±0.124 cm H2O/ml/sec
same,Lung Compliance,sensitized guinea pigs; 10 min after challenge,0.138±0.022 ml/cm H2O
same,Lung Resistance,sensitized guinea pigs; 10 min after challenge,0.436±0.036 cm H2O/ml/sec
same,Lung Compliance,sensitized guinea pigs; 20 min after challenge,0.193±0.054 ml/cm H2O
same,Lung Resistance,sensitized guinea pigs; 20 min after challenge,0.413±0.076 cm H2O/ml/sec
same,Lung Compliance,sensitized guinea pigs; 30 min after challenge,0.181±0.046 ml/cm H2O
same,Lung Resistance,sensitized guinea pigs; 30 min after challenge,0.412±0.072 cm H2O/ml/sec
same,Lung Compliance,sensitized guinea pigs; Baseline,0.463±0.129 ml/cm H2O
same,Lung Resistance,sensitized guinea pigs; Baseline,0.300±0.025 cm H2O/ml/sec
same,Lung Compliance,sensitized guinea pigs; OA/10 s,0.565±0.062 ml/cm H2O
same,Lung Resistance,sensitized guinea pigs; OA/10 s,0.288±0.036 cm H2O/ml/sec
same,Percentage Total Cells Recovered in Lavage Fluid: Cells Stained Positive for Peroxidase,[2],5.65 ± 2.44 %
same,Percentage Total Cells Recovered in Lavage Fluid: Eosinophils,[2],1.98 ± 0.78 %
same,Percentage Total Cells Recovered in Lavage Fluid: Neutrophils,[2],6.16 ± 4.54%
